Measured values taken from PubChem BioAssay (NCI).
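Cultured in 96-well plates, cells were exposed to test compound for 48 hours across five concentrations. Definition used: TGI = concentration required for complete inhibition of growth.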

What was measured:
Experiment in all cases: growth of human tumour cells (NCI), 48 h
UO-31 renal = system: UO-31 renal
HT29 colon = system: HT29 colon
SR leukemia = system: SR leukemia
NCI-H23 lung = system: NCI-H23 lung
MOLT-4 leukemia = system: MOLT-4 leukemia
HS 578T breast = system: HS 578T breast
CCRF-CEM leukemia = system: CCRF-CEM leukemia
A498 renal = system: A498 renal
SW-620 colon = system: SW-620 colon
CAKI-1 renal = system: CAKI-1 renal
SNB-19 CNS = system: SNB-19 CNS
NCI-H460 lung = system: NCI-H460 lung
SK-MEL-28 melanoma = system: SK-MEL-28 melanoma
SF-295 CNS = system: SF-295 CNS
SNB-75 CNS = system: SNB-75 CNS
BT-549 breast = system: BT-549 breast
HCC-2998 colon = system: HCC-2998 colon
TK-10 renal = system: TK-10 renal
MDA-MB-435 = system: MDA-MB-435
OVCAR-5 ovarian = system: OVCAR-5 ovarian
IGROV1 ovarian = system: IGROV1 ovarian
786-0 renal = system: 786-0 renal
U251 CNS = system: U251 CNS
OVCAR-4 ovarian = system: OVCAR-4 ovarian
SF-539 CNS = system: SF-539 CNS
SN12C renal = system: SN12C renal
COLO 205 colon = system: COLO 205 colon
EKVX NSCLC = system: EKVX NSCLC
HL-60(TB) leukemia = system: HL-60(TB) leukemia
MCF7 breast = system: MCF7 breast
NCI-H522 lung = system: NCI-H522 lung
MDA-N = system: MDA-N
ACHN renal = system: ACHN renal
HOP-62 NSCLC = system: HOP-62 NSCLC
LOX IMVI melanoma = system: LOX IMVI melanoma
UACC-257 melanoma = system: UACC-257 melanoma
SF-268 CNS = system: SF-268 CNS
RPMI-8226 leukemia = system: RPMI-8226 leukemia
NCI/ADR-RES ovarian = system: NCI/ADR-RES ovarian
MDA-MB-231 breast = system: MDA-MB-231 breast
NCI-H226 lung = system: NCI-H226 lung
A549 NSCLC = system: A549 NSCLC
HCT-116 colon = system: HCT-116 colon
HOP-92 NSCLC = system: HOP-92 NSCLC
UACC-62 melanoma = system: UACC-62 melanoma
SK-MEL-2 melanoma = system: SK-MEL-2 melanoma
KM12 colon = system: KM12 colon
PC-3 prostate = system: PC-3 prostate
SK-MEL-5 melanoma = system: SK-MEL-5 melanoma
OVCAR-3 ovarian = system: OVCAR-3 ovarian
RXF 393 renal = system: RXF 393 renal
T-47D breast = system: T-47D breast
HCT-15 colon = system: HCT-15 colon
M14 melanoma = system: M14 melanoma
OVCAR-8 ovarian = system: OVCAR-8 ovarian
MALME-3M melanoma = system: MALME-3M melanoma
DU-145 prostate = system: DU-145 prostate
K-562 leukemia = system: K-562 leukemia
SK-OV-3 ovarian = system: SK-OV-3 ovarian
M19-MEL melanoma = system: M19-MEL melanoma
SNB-78 CNS = system: SNB-78 CNS
HOP-18 NSCLC = system: HOP-18 NSCLC
LXFL 529 NSCLC = system: LXFL 529 NSCLC
KM20L2 colon = system: KM20L2 colon
DMS 114 small cell lung = system: DMS 114 small cell lung
DMS 273 small cell lung = system: DMS 273 small cell lung
DLD-1 colon = system: DLD-1 colon

Compound: COc1ccc(/C(CC2OC(=O)c3ccccc32)=N\NC(N)=O)cc1 (stereo unspecified)
- TGI (UO-31 renal): > 100 µM
- TGI (HT29 colon): > 100 µM
- TGI (SR leukemia): > 100 µM
- TGI (NCI-H23 lung): > 100 µM
- TGI (MOLT-4 leukemia): > 100 µM
- TGI (HS 578T breast): > 100 µM
- TGI (CCRF-CEM leukemia): > 100 µM
- TGI (A498 renal): > 100 µM
- TGI (SW-620 colon): > 100 µM
- TGI (CAKI-1 renal): > 100 µM
- TGI (SNB-19 CNS): > 100 µM
- TGI (NCI-H460 lung): > 100 µM
- TGI (SK-MEL-28 melanoma): > 100 µM
- TGI (SF-295 CNS): > 100 µM
- TGI (SNB-75 CNS): > 100 µM
- TGI (BT-549 breast): > 100 µM
- TGI (HCC-2998 colon): > 100 µM
- TGI (TK-10 renal): > 100 µM
- TGI (MDA-MB-435): > 100 µM
- TGI (OVCAR-5 ovarian): > 100 µM
- TGI (IGROV1 ovarian): > 100 µM
- TGI (786-0 renal): > 100 µM
- TGI (U251 CNS): > 100 µM
- TGI (OVCAR-4 ovarian): > 100 µM
- TGI (SF-539 CNS): > 100 µM
- TGI (SN12C renal): > 100 µM
- TGI (COLO 205 colon): > 100 µM
- TGI (EKVX NSCLC): > 100 µM
- TGI (HL-60(TB) leukemia): > 100 µM
- TGI (MCF7 breast): > 100 µM
- TGI (NCI-H522 lung): > 100 µM
- TGI (MDA-N): > 100 µM
- TGI (ACHN renal): > 100 µM
- TGI (HOP-62 NSCLC): > 100 µM
- TGI (LOX IMVI melanoma): > 100 µM
- TGI (UACC-257 melanoma): > 100 µM
- TGI (SF-268 CNS): > 100 µM
- TGI (RPMI-8226 leukemia): > 100 µM
- TGI (NCI/ADR-RES ovarian): > 100 µM
- TGI (MDA-MB-231 breast): > 100 µM
- TGI (NCI-H226 lung): > 100 µM
- TGI (A549 NSCLC): > 100 µM
- TGI (HCT-116 colon): > 100 µM
- TGI (HOP-92 NSCLC): > 100 µM
- TGI (UACC-62 melanoma): > 100 µM
- TGI (SK-MEL-2 melanoma): > 100 µM
- TGI (KM12 colon): > 100 µM
- TGI (PC-3 prostate): > 100 µM
- TGI (SK-MEL-5 melanoma): > 100 µM
- TGI (OVCAR-3 ovarian): > 100 µM
- TGI (RXF 393 renal): > 100 µM
- TGI (T-47D breast): > 100 µM
- TGI (HCT-15 colon): > 100 µM
- TGI (M14 melanoma): > 100 µM
- TGI (OVCAR-8 ovarian): > 100 µM
- TGI (MALME-3M melanoma): > 100 µM
- TGI (DU-145 prostate): > 100 µM
- TGI (K-562 leukemia): > 100 µM
- TGI (SK-OV-3 ovarian): > 100 µM

Compound: N#CC(NNC(=O)c1ccccc1O)c1c(O)ccc2ccccc12 (stereo unspecified)
- TGI (UO-31 renal): 11.4 µM
- TGI (HT29 colon): > 87.7 µM
- TGI (SR leukemia): 40.8 µM
- TGI (NCI-H23 lung): 20.8 µM
- TGI (MOLT-4 leukemia): 37.8 µM
- TGI (HS 578T breast): > 86.2 µM
- TGI (CCRF-CEM leukemia): > 90.9 µM
- TGI (A498 renal): > 66 µM
- TGI (SW-620 colon): > 60.9 µM
- TGI (CAKI-1 renal): 21 µM
- TGI (SNB-19 CNS): > 100 µM
- TGI (NCI-H460 lung): 36.8 µM
- TGI (SK-MEL-28 melanoma): > 100 µM
- TGI (SF-295 CNS): 50.5 µM
- TGI (SNB-75 CNS): 48.3 µM
- TGI (BT-549 breast): > 54.8 µM
- TGI (M19-MEL melanoma): 9.62 µM
- TGI (HCC-2998 colon): > 100 µM
- TGI (TK-10 renal): 36.5 µM
- TGI (MDA-MB-435): 43.4 µM
- TGI (OVCAR-5 ovarian): 21.1 µM
- TGI (IGROV1 ovarian): 33.9 µM
- TGI (786-0 renal): 58.8 µM
- TGI (U251 CNS): 37.1 µM
- TGI (OVCAR-4 ovarian): 23.3 µM
- TGI (SF-539 CNS): 23.1 µM
- TGI (SN12C renal): 37.9 µM
- TGI (COLO 205 colon): 23.6 µM
- TGI (EKVX NSCLC): 51.7 µM
- TGI (HL-60(TB) leukemia): 12.2 µM
- TGI (MCF7 breast): 53.6 µM
- TGI (NCI-H522 lung): 18.7 µM
- TGI (MDA-N): > 63.2 µM
- TGI (SNB-78 CNS): > 100 µM
- TGI (HOP-18 NSCLC): 8.2 µM
- TGI (LXFL 529 NSCLC): 33.4 µM
- TGI (KM20L2 colon): 68 µM
- TGI (ACHN renal): 22.2 µM
- TGI (HOP-62 NSCLC): 29.5 µM
- TGI (LOX IMVI melanoma): 6.64 µM
- TGI (UACC-257 melanoma): 24.9 µM
- TGI (SF-268 CNS): 64.9 µM
- TGI (RPMI-8226 leukemia): 43 µM
- TGI (NCI/ADR-RES ovarian): 19.3 µM
- TGI (DMS 114 small cell lung): 5.14 µM
- TGI (MDA-MB-231 breast): 27.7 µM
- TGI (NCI-H226 lung): 13.4 µM
- TGI (A549 NSCLC): 26.8 µM
- TGI (HCT-116 colon): 14.8 µM
- TGI (HOP-92 NSCLC): 40.7 µM
- TGI (UACC-62 melanoma): 9.32 µM
- TGI (SK-MEL-2 melanoma): 33.3 µM
- TGI (KM12 colon): > 100 µM
- TGI (DMS 273 small cell lung): 14.2 µM
- TGI (PC-3 prostate): > 55.1 µM
- TGI (SK-MEL-5 melanoma): 10.4 µM
- TGI (OVCAR-3 ovarian): 23.8 µM
- TGI (RXF 393 renal): 29.9 µM
- TGI (DLD-1 colon): > 100 µM
- TGI (T-47D breast): 18.7 µM
- TGI (HCT-15 colon): 32.8 µM
- TGI (M14 melanoma): 30 µM
- TGI (OVCAR-8 ovarian): 25.9 µM
- TGI (MALME-3M melanoma): 27.6 µM
- TGI (DU-145 prostate): 18.4 µM
- TGI (K-562 leukemia): > 66.3 µM
- TGI (SK-OV-3 ovarian): 40.7 µM
